Measured values taken from patent US20140161342A1, “DENSITY-BASED METHOD OF COMPARING IMAGES AND DETECTION OF MORPHOLOGICAL CHANGES USING THE METHOD THEREOF” (CENTRE NATIONAL DE LA RECHERCHE SCIENTIFIQUE CNRS, priority 2011, published 2014).

How the values were obtained:
Assay type in all cases: cell-based, Human
[1] = system: microtubules; assay: Density-based comparison of microtubules (β-tubulin stain), micropatterned RPE-1 cells; design: dose or concentration left out as unconfirmed; settings: nocodazole; 16 cells of CG, 16 cells of TG; tubulin structures
Procedure: Human RPE-1 cells kept in growth medium were trypsinized and seeded on micropattern-printed coverslips as described in EP 1664266. To depolymerize microtubules, nocodazole was added to a final concentration of 10 M to TG. TG and CG were both subsequently incubated for 1 h at 4° C. and 1 h at 37° C. Cells were fixed with 4% (wt/vol) paraformaldehyde (PFA) and proceeded for indirect immunofluorescence staining with primary β-tubulin antibodies (Sigma-Aldrich) to visualize microtubules and fluorophore-coupled secondary antibodies.
3D image stacks of n cells of each condition (TG and CG) were acquired with 100× magnification and Z-series every 0.2 m. Images were deconvolved and segmented in order to detect signals that are larger than noise. To represent continuous structures (microtubules and Rab8-marked membranes domains) by a cloud of coordinates, we “cut” them in several small structures by increasing the watershed during segmentation. The coordinates of the segmented structures from all cells were aligned using the micropattern geometry and the coordinate sample of the TG was compared with the coordinate sample of the CG using the above-described method for each intracellular compartment analyzed.
Each coordinate stands for one fluorescent fragment. […]

[2] = system: multivesicular bodies (MVB); assay: Density-based comparison of multivesicular body (MVB) morphology, CD63 stain, micropatterned RPE-1 cells; settings: nocodazole 10 μM, 1 h at 4° C. and 1 h at 37° C., 40 cells of CG, 40 cells of TG
Procedure: Human RPE-1 cells kept in growth medium were trypsinized and seeded on micropattern-printed coverslips as described in EP 1664266. To depolymerize microtubules, nocodazole was added to a final concentration of 10 μM to TG. TG and CG were both subsequently incubated for 1 h at 4° C. and 1 h at 37° C. Cells were fixed with 4% (wt/vol) paraformaldehyde (PFA) and proceeded for indirect immunofluorescence staining with primary α-CD63 antibodies (Invitrogen) to visualize MVB, α-GM130 antibodies to visualize the Golgi apparatus and α-Sec13 antibodies to visualize ERES as well as fluorophore-coupled secondary antibodies. 3D image stacks of n cells of each condition (TG and CG) were acquired with 100× magnification and Z-series every 0.2 μm. […] The coordinates of the segmented structures from all cells were aligned using the micropattern geometry and the coordinate sample of the TG was compared with the coordinate sample of the CG using the above-described method for each intracellular compartment analyzed.
Parts A and B of FIG. 5 illustrate representative fluorescent images of one cell from CG (designated by “Crtl”) and one cell from TG (designated by “NZ” for nocodazole) stained for MVB. […] As shown in prior art, the steady-sate three-dimensional organization of MVB is constant in micropatterned cells as analyzed here. […]

[3] = system: Golgi apparatus; assay: Density-based comparison of Golgi apparatus morphology, GM130 stain, micropatterned RPE-1 cells; settings: nocodazole 10 μM, 15 cells of CG, 20 cells of TG
Procedure: (§1) Human RPE-1 cells kept in growth medium were trypsinized and seeded on micropattern-printed coverslips as described in EP 1664266. To depolymerize microtubules, nocodazole was added to a final concentration of 10 μM to TG. TG and CG were both subsequently incubated for 1 h at 4° C. and 1 h at 37° C. Cells were fixed with 4% (wt/vol) paraformaldehyde (PFA) and proceeded for indirect immunofluorescence staining with primary α-CD63 antibodies (Invitrogen) to visualize MVB, α-GM130 antibodies to visualize the Golgi apparatus and α-Sec13 antibodies to visualize ERES as well as fluorophore-coupled secondary antibodies. 3D image stacks of n cells of each condition (TG and CG) were acquired with 100× magnification and Z-series every 0.2 μm. Images were deconvolved and segmented in order to detect signals that are fifteen-fold larger than noise. The coordinates of the segmented structures from all cells were aligned using the micropattern geometry and the coordinate sample of the TG was compared with the coordinate sample of the CG using the above-described method for each intracellular compartment analyzed.
Parts A and B of FIG. 6 illustrate representative fluorescent images of one cell from CG (designated by “Crtl”) and one cell from TG (designated by “NZ” for nocodazole) stained for the Golgi apparatus. […]

[4] = system: multivesicular bodies (MVB); assay: Live cell analysis of MVB in unconstrained EGFP-CD63-expressing RPE-1 cells; settings: nocodazole 20 μM, last six time frames after addition
Procedure: In this example, morphological changes in the steady-state organization of MVB were monitored in a time period between two instants t1 and t2 when using a drug treatment. Thus, the density-based method of the present invention is applied to life cell analysis. More precisely, MVB were analyzed in unconstrained cells before and after treatment with nocodazole, illustrating that the present invention is not limited to the comparison of constrained cells but can also apply to the comparative study of unconstrained cells.
EGFP-CD63-expressing stable cells (generated by transfection of the plasmid pEGFP-CD63, Ostrowski et al. NATURE CELL BIOLOGY, January 2010) into RPE-1 cells and selection with 500 μg/ml geneticin) were seeded on iwaki glass base dishes (Asahi Glass) for live cell observation. To depolymerize microtubules, nocodazole (NZ) was added to a final concentration of 20 μM. […] The first two groups contained images in the absence of the drug (CG1 and CG2) and the second two groups contained images in the presence of the drug (TG1 and TG2) recorded after the addition of the drug. […]
Groups CG1 and CG2 are non-treated control groups with 1080 and 1002 detected CD63-positive structures that were acquired before addition of the drug.
Groups TG1 and TG2 are treated test groups containing 1019 and 801 structures that were recorded after the addition of the drug. […]

[5] = system: endoplasmic reticulum exit sites (ERES); assay: Density-based comparison of endoplasmic reticulum exit sites (ERES), Sec13 stain, micropatterned RPE-1 cells; settings: nocodazole 10 μM, 15 cells of CG, 11 cells of TG
Procedure: as §1
Parts A and B of FIG. 7 illustrate representative fluorescent images of one cell from CG (designated by “Crtl”) and one cell from TG (designated by “NZ” for nocodazole) stained for ERES. […]

SMILES: COC(=O)Nc1nc2ccc(C(=O)c3cccs3)cc2[nH]1 [nocodazole]
- P2D-value, comparison TG/CG [1]: 6.5862*10^−41
- P3D-value, comparison TG/CG [1]: 2.7758*10^−228
- P2D-value, comparison TG/CG [2]: 1.589*10^−5
- P3D-value, comparison TG/CG [2]: 1.280*10^−11
- P2D-value, comparison TG/CG [3]: 0.9524*10^−2
- P3D-value, comparison TG/CG [3]: 1.8741*10^−2
- P2D-value, non-treated group CG1 vs treated group TG2 [4]: 4.00*10^−6
- P3D-value, non-treated group CG1 vs treated group TG2 [4]: 4.84*10^−6
- P2D-value, comparison TG/CG [5]: 0.3416*10^−3
- P3D-value, comparison TG/CG [5]: 0.1118*10^−6
